Assay results: ChEMBL document CHEMBL5120783, “Procyanidins and Phlobatannins from the Twigs of Rosa multiflora and Their Neuroprotective Activity” (J Nat Prod, 2022)

Assays:
[1] = system: BV-2; assay: Anti-neuroinflammatory activity in mouse BV-2 cells assessed as inhibition of LPS-induced NO production; type: functional, cell-based
[2] = Cytotoxicity against mouse BV-2 cells assessed as cell viability at 25 uM by MTT assay; type: toxicity, cell-based; settings: read-out: Activity
[3] = Cytotoxicity against rat C6 cells assessed as cell viability at 25 uM by MTT assay; type: toxicity, cell-based; settings: read-out: Activity
[4] = system: C6; assay: Neuroprotective activity in rat C6 cells assessed as NGF secretion level at 25 uM measured after 24 hrs by ELISA; type: functional

SMILES | IC50 [1] [µM] | viability at 25 µM [2] [%] | viability at 25 µM [3] [%] | Activity [4] [%]
COc1cc([C@@H]2Oc3cc(CCCO)cc(O)c3O[C@H]2CO)ccc1O | 36.9 | 92.4 |  | 
OC[C@H]1O[C@@H](O[C@H]2c3ccc(O)cc3O[C@@H](c3ccc(O)cc3)[C@@H]2O)[C@H](O)[C@@H](O)[C@@H]1O | 51.5 | 98.9 | 102 | 103.8
COc1cc([C@@H]2Oc3cc(CCCO)cc(O)c3O[C@H]2CO)ccc1O[C@@H]1O[C@H](CO)[C@@H](O)[C@H](O)[C@H]1O | 50.6 | 95.9 | 99.2 | 107.6
CCCCC/C=C/C(=O)CCc1ccc(O)c(OC)c1 [SHOGAOL] |  |  | 116 | 118.5
CNC(=N)NCCC[C@H](N)C(=O)O [TILARGININE] | 27.2 | 104 |  | 
